Assay results reported in patent US8134010B2, “Thiazole-based nitric oxide donors having aryl substituent(s) and uses thereof” (priority 2004, dated 2012).
“Also recorded” adds a separate entry of the source.

Tests used:
[1] = system: Sprague-Dawley rats; test: Effects of Pet-120 on the endothelial dysfunction of angiotensin II induced hypertension in rats; format: in vivo, rat; details: Pet-120 with Ang II for 14 days; aortic rings, acetylcholine curves
Method: Male Sprague-Dawley rats were housed in separate cages and maintained in a temperature regulated room on a 12-hour light/dark cycle. Throughout the experiments, animals had free access to water and standard rat chow. Rats weighing 270 to 310 grams at the beginning of the experiments were anesthetized with ketamine and xylazine (50 and 10 mg/kg, respectively), and an osmotic miniature pump (model 2002; Alza Co) was implanted subcutaneously at the dorsum of the neck. Rats were selected at random and divided into three groups. The first group used as control and received the vehicle alone. The second group received angiotensin II (Ang II, Sigma Chemical Co) infusion (n=3) at a rate of 80 ng/minute or vehicle (n=2; for a period of 14 days. The third group (n=3) received both Ang II (as the second group) and Pet-120 at rate 167 ng/minute for 14 days. At the end of the treatment, rats were anesthetized with ketamine and xylazine (50 and 10 mg/kg, respectively), and both the osmotic pumps and the catheters were removed, and the animals were allowed to recover for 24 hours before initiation of the experiment.
Thereafter a section of the thoracic aorta (with endothelium) was removed from the rats, dissected free of fat and connective tissue in oxygenated Krebs-Hanseliet solution (pH 7.4). […]

[2] = system: cyclic-GMP in isolated aorta of rats; test: Induction of in vivo nitrate tolerance (cGMP in isolated aorta of rats pre-treated in vivo); parameters: species or system rat; details: rats pre-treated in vivo with the same compound
Method: For c-GMP levels and tolerance development, the rat's thoracic aorta was isolated after exposure to the tested compound in vivo, and measured as described above in the in vitro assays.
Male Sprague Dawley rats (220 to 250 grams) were housed under constant temperature and humidity conditions. Light was maintained at a 12/12 light dark cycle. Except for 12 hours before the experiment, when food fasting was initiated, all rats had free access to standard rat pellet diet and tap water. The animals were anesthetized by intraperitoneal injection of ketamine and xylazine combination (50 and 10 milligram per kilogram, respectively). […] The catheters were filled with normal saline solution containing 1000 IU/ml of heparin and plugged with a metal pin. Catheters were externalized to the back of the neck region and secured by a polyester felt disk.
After implantation, the rats were individually housed until they regained their preoperative weight and appeared healthy (3 to 4 days post-operation). At this time point (day 0), an osmotic mini-pump (Alza Corp., Palo Alto, Calif.) delivering constant volume (10 μl/hour) of vehicle or drug was connected to one of the intravenous catheters.
For inducing tolerance to the tested NO-donor according to the present invention, the animals received 200 μg/hour of the tested compound for 16 hours (short-term-induced tolerance). A similar number of animals were processed by the same surgical procedure and received the vehicle alone (10 μl/hour of a solution consisting of 30% ethanol and 30% propylene glycol in sterile distilled water for injection).
At the end of the infusion periods used for the development of tolerance (16 hour), the rats were anesthetized as described above, the two catheters were externalized and the delivering catheters were disconnected from the mini-pump. The abdomen was opened by midline incision and the thoracic aorta were isolated, washed and cleaned from the surrounding tissues. […]

[3] = system: isolated rat aorta; test: Chronic administration of Pet-120 and vasoactivity determination in isolated aorta; format: in vivo; details: Pet-120 for 7 days
Method: Male Sprague Dawley rats (250 to 300 grams) were used and housed under constant temperature and humidity conditions. The animals were anesthetized with intraperitoneal injection of ketamine and xylazine combination (50 and 10 mg/kg, respectively). An osmotic miniature pump (ALZA Corp., Palo Alto, Calif.) delivering constant volume (10 μl/hour) of vehicle and Pet-120 was connected to one of the intravenous catheters. The animals received 200 μg/hour for 7 days. As control, a similar number of animals underwent the same surgical procedure and received the vehicle alone (10 μl/hour of a solution consisting of 30% ethanol and 30% propylene glycol in sterile distilled water for injection). At the end of the infusion periods the rats were anesthetized by the combination described above. The abdomen was opened by midline incision and the thoracic aorta was isolate, washed and cleaned from the surrounding tissues.
The aorta of the rats which were treated as described hereinabove was cut into rings of 4-5 mm long each. The rings were mounted under 1 g tension in organ bath containing 30 ml of Krebs-Hansliet solution (pH 7.4) of the following composition (mM): NaCl […], CaCl2 1.6, MgSO4 1.2, KH2PO4 1.2, NaHCO3 25.0, D-glucose 11.1. At 37 C° and gassed with 95% O2- 5% CO2. […]

[4] = system: Sprague-Dawley rats; test: Effect of Pet-120 on mean arterial blood pressure (MABP) after intravenous bolus infusion; format: in vivo, rat; details: 50 micrograms Pet-120 after 10 micrograms phenylephrine
Method: Male Sprague-Dawley rats weighing 310 grams at the beginning of the experiments were anesthetized with ketamine and xylazine (50 and 10 mg/kg, respectively), and an osmotic miniature pump (model 2002; ALZA Co filled with L-NAME) was canulated to right jugular vien (RJV) and implanted subcutaneously at the dorsum of the neck. L-NAME was infusion from ALZA miniature pump at a rate of 500 ng/minute for 24 hours. One day after the rat was anesthetized again with ketamine and xylazine and the both left jugular vein (LJV) and right common carotid (for MABP monitoring) was canulated. After the rats stabilized, Pet-120 was administered through the LJV (50 μg).
The efficacy of Pet-120, an exemplary NO-donating compound according to some embodiments of the present invention, was assayed as presented hereinabove in animals which were treated with phenylephrine so as to heighten their mean arterial blood pressure.

[5] = system: isolated rat aorta; test: Cross-tolerance studies on aortic rings (GTN / Pet-12 pre-treatment); format: cell-based; details: aorta pre-treated with GTN
Method: Cross-tolerance studies were conducted using the same technique described above for measuring vasorelaxation of aortic rings from rats. Two groups of aortic rings samples were pre-treated with GTN, then one group was measured for vasorelaxation by GTN and the second group for vasorelaxation by Pet-12, an exemplary NO-donor according to the present invention. For the opposite cross-tolerance studies, two groups of aortic rings samples were pre-treated with Pet-12, then one group was measured for vasorelaxation by GTN and the second group for vasorelaxation by Pet-12.

Cc1nc(-c2ccc([N+](=O)[O-])cc2)sc1CCO[N+](=O)[O-] [Pet-120, 4-Methyl-5-(2-nitrooxy-ethyl)-2-(4-nitro-phenyl)-thiazole]
vasorelaxation after Ang II induced hypertension [1]: notable capacity to induce vasorelaxation
tolerance induction by cyclic-GMP accumulation in aorta of rats pre-treated in vivo [2]: absence of tolerance induction
tolerance induction after daily in-vivo administration over 7 days versus single dose (vasorelaxation in isolated aorta) [3]: absence of tolerance inducement; also recorded: not to induce tolerance
effect on mean arterial blood pressure (MABP) [4]: reducing the MABP to its original levels
vasorelaxation in rings made tolerant to GTN (cross-tolerance) [5]: can even induce vasorelaxation in rat aorta of rats after tolerance has been induced therein by chronic use of GTN
